The results in this text go back to ChEMBL document CHEMBL4041539, “1,2,3-Triazole-nimesulide hybrid: Their design, synthesis and evaluation as potential anticancer agents” (Bioorg Med Chem Lett, 2017).

One data set deals with A549. As to the kind of experiment: Growth inhibition of human A549 cells after 48 hrs by MTT assay. Format: functional, cell-based. The conditions noted are these: A549, 48 h.
A further data set has as its system HepG2. As to the kind of experiment: Growth inhibition of human HepG2 cells after 48 hrs by MTT assay. The conditions noted are these: HepG2, 48 h. Format: functional, cell-based.
In data set [1] the target is 3',5'-cyclic-AMP phosphodiesterase 4B (Homo sapiens) (UniProt Q07343). As to the kind of experiment: Inhibition of recombinant His-tagged PDE4B1 (unknown origin) expressed in baculovirus infected sf9 cells at 10 uM using cAMP as substrate preincubated for 15 mins followed by cAMP addition measured after 1 hr by PDE light HTS assay relative to control.
3',5'-cyclic-AMP phosphodiesterase 4B (Homo sapiens), sequence (Q07343 whole entry): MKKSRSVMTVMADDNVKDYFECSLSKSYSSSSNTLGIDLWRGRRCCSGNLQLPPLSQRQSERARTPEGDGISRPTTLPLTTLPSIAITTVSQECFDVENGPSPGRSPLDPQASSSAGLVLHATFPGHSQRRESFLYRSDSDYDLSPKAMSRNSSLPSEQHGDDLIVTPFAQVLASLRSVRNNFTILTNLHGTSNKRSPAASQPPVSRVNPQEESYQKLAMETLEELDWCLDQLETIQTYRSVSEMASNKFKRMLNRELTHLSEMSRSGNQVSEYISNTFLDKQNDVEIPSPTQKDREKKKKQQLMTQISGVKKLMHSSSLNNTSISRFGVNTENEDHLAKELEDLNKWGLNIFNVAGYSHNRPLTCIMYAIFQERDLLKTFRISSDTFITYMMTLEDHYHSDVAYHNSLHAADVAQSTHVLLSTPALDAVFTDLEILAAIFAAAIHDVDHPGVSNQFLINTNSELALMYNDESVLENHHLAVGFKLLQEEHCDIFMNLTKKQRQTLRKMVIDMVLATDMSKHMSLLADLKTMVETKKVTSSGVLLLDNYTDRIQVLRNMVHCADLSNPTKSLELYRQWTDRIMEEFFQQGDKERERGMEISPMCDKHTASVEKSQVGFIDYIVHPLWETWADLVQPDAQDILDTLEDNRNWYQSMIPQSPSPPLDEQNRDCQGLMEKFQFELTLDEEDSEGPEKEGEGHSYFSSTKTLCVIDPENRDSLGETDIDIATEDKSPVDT
The next data set concerns DU-145. As to the kind of experiment: Growth inhibition of human DU145 cells after 48 hrs by MTT assay. The conditions noted are these: DU-145, 48 h. Format: functional, cell-based.
Another data set deals with HEK293. As to the kind of experiment: Cytotoxicity against HEK293 cells up to 10 uM after 48 hrs by MTT assay. Format: cell-based. The following applies: human, hek293, 48 h.
The test system of the next data set is HeLa. Put plainly: Growth inhibition of human HeLa cells after 48 hrs by MTT assay. Format: functional, cell-based.
Data set [2] has as its target Prostaglandin G/H synthase 2 (Homo sapiens) (UniProt P35354). Put plainly: Inhibition of human COX2 expressed in baculovirus infected sf9 microsomes at 10 uM using arachidonic acid as substrate preincubated for 15 mins followed by substrate addition by TMPD oxidation based assay relative to control.

Prostaglandin G/H synthase 2 (Homo sapiens), sequence (P35354 whole entry, looked up): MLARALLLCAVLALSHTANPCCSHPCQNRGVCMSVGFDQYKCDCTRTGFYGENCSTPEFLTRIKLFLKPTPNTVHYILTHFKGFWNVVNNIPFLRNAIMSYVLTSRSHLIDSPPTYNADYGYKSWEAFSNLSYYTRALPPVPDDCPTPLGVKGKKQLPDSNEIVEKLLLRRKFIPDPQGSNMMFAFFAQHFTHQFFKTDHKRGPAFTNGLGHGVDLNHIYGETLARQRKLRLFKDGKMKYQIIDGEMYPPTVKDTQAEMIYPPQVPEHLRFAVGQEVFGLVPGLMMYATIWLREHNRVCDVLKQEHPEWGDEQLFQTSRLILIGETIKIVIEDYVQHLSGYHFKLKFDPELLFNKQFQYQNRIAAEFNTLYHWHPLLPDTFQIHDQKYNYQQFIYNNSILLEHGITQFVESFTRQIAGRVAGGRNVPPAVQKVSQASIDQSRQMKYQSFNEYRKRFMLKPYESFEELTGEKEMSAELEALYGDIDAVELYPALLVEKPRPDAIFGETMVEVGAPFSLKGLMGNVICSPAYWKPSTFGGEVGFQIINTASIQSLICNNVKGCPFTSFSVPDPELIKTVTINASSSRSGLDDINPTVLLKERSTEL

As to `CS(=O)(=O)Nc1ccc([N+](=O)[O-])cc1Oc1ccccc1` [NIMESULIDE], the concentration for half-maximal inhibition (IC50) in the data set with A549 was 67.8 µM; in the data set on HepG2, 35.2 µM. Also, in data set [1], the inhibition came to 52%.

`Cc1ccc(-c2cn(-c3ccc(NS(C)(=O)=O)c(Oc4ccccc4)c3)nn2)cc1`: the IC50 in the data set on HepG2 was 18.3 µM; in the data set with DU-145, 11.2 µM. In the data set with HEK293, the Activity result was “Non-Toxic”.

On to `CS(=O)(=O)Nc1ccc(-n2cc(-c3ccccc3)nn2)cc1Oc1ccccc1`, for which the 50% inhibitory concentration (IC50) in the data set with A549 came out at 29.9 µM; with HepG2 it was 13.6 µM; with HeLa, 21.9 µM; with DU-145 it was 14.2 µM. In addition, in the data set on HEK293, the Activity entry is listed as “Non-Toxic”.

Regarding `CS(=O)(=O)Nc1ccc(-n2cc(COc3ccc(Cl)cc3)nn2)cc1Oc1ccccc1`, the 50% inhibitory concentration (IC50) in the data set on A549 was found to be 7.1 µM; in the data set with HepG2, 7.5 µM; in the data set with HeLa it was 7.8 µM; in the data set on DU-145, 6.4 µM. The values for the inhibition in data set [1] and in data set [2] were 62.8% and 23%, respectively. In the data set on HEK293, the Activity result is given as “Non-Toxic”.

As for `CS(=O)(=O)Nc1ccc(-n2cc(COc3ccccc3Cl)nn2)cc1Oc1ccccc1`, the 50% inhibitory concentration (IC50) in the data set on A549 is 53.8 µM; with HepG2, 25.3 µM; in the data set with HeLa it was 38.6 µM; with DU-145, 21.1 µM. Besides, in the data set with HEK293, the Activity entry is “Non-Toxic”.

As to `CS(=O)(=O)Nc1ccc(-n2cc(COc3ccc4ccccc4c3)nn2)cc1Oc1ccccc1`, the IC50 with A549 is 8.3 µM; with HepG2, 19.5 µM; in the data set with HeLa, 12.8 µM; in the data set on DU-145, 9.1 µM. In addition, the Activity result in the data set with HEK293 was “Non-Toxic”.

Turning to `Cc1cc(OCc2cn(-c3ccc(NS(C)(=O)=O)c(Oc4ccccc4)c3)nn2)ccc1Cl`, the 50% inhibitory concentration (IC50) in the data set on A549 is 6.7 µM; with HepG2, 9.8 µM; with HeLa it was 7.9 µM; with DU-145, 5.9 µM. In data set [1], the inhibition worked out at 67.5%. Also, the Activity result with HEK293 is on record as “Non-Toxic”.

As to `Cc1ccc(OCc2cn(-c3ccc(NS(C)(=O)=O)c(Oc4ccccc4)c3)nn2)cc1`, the concentration for half-maximal inhibition (IC50) with A549 was determined as 8 µM; with HepG2 it was 13 µM; with HeLa, 15.8 µM; in the data set with DU-145 it was 8.2 µM. In the data set with HEK293, the Activity entry is on record as “Non-Toxic”.

Consider `CS(=O)(=O)Nc1ccc(-n2cc(COc3ccc([N+](=O)[O-])cc3)nn2)cc1Oc1ccccc1`, for which the IC50 worked out at 6.6 µM with A549 and 7.2 µM with DU-145. Moreover, the inhibition in data set [1] amounted to 70.2%. The Activity entry in the data set with HEK293 was “Non-Toxic”.
